This is an account of results in the METLIN SMRT retention time set (Domingo-Almenara et al. 2019).

The series can be described thus: gradient 5% acetonitrile 3 min, to 50% in 2 min, to 85% in 15 min, held 3 min, 100 µL/min. The settings on record: column: Zorbax Extend-C18 2.1 x 50 mm; eluents: water / acetonitrile, 0.1% formic acid. In a few lines:
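Retention times come from adduct peaks that were picked computationally and then checked by hand. The standards, pure and pooled in mixtures of ~100 molecules, were run on a Zorbax Extend-C18 column (2.1 × 50 mm, 1.8 μm) at 100 μL/min with water and acetonitrile, each with 0.1% formic acid. Detection was by quadrupole time-of-flight mass spectrometry in positive and negative ionization mode, with a dead volume of 40 μL and a dwell volume of 900 μL.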
The molecule `Cc1ccc(C)c(S(=O)(=O)N2CCC(c3noc(COCC4CC4)n3)CC2)c1` came in with an RP-LC retention time of 1100 s.
`O=C(CSc1nc2ccc([N+](=O)[O-])cc2s1)c1ccc(F)cc1` had an RP-LC retention time of 1030 s.
For `COCCCNCc1ccc(-c2ccccc2Cl)o1` the value was 672 s; for `CCN(CC)S(=O)(=O)c1c(C)nc2sc(C)nn12`, 760 s; for `O=C(NCc1ccco1)C1CN(S(=O)(=O)c2ccccc2)CC12CCCCC2` (configuration not stated), 942 s.
The value for `CCn1ccc2sc(C)c(C(=O)NC(C)c3ccc(F)cc3)c2c1=O` (configuration not stated) was 808 s; that for `Cc1ccc(NC(=O)CSc2nc(N3CCCCC3)nc3ccccc23)cc1Cl` was 852 s.
`COc1ccccc1-c1nnc(-c2ccc(C)c(S(=O)(=O)N3CCC(C)CC3)c2)o1` yielded an RP-LC retention time of 1150 s.
The value for `Cc1nc(C(=O)Nc2cccc(C(F)(F)F)c2)c(C)o1` was 988 s; that for `CCN1C(=O)c2cccnc2Sc2cc(NC(=O)CCc3cccc(OC)c3)ccc21` was 855 s.
`CCOC(=O)c1nn(-c2ccccc2)cc1O` came in with an RP-LC retention time of 830 s.
For `O=C(NC1CCCCC1)C1CCN(Cc2noc(-c3ccc(F)cc3)n2)CC1`, the RP-LC retention time was found to be 665 s.
The molecule `CC(=O)Nc1ccc(Br)cc1C(=O)C(=O)NCCc1c[nH]c2ccccc12` returned an RP-LC retention time of 876 s.
For `CN(C)CCNC(=O)CN1C(=O)C2CCCCN2c2ccc(C(=O)N3CCCC3)cc21` (configuration not stated) the value was 596 s; for `CCC(=O)N1CCc2cc(-c3ccc(C(=O)NCc4ccco4)cc3)ccc21`, 849 s.
In the case of `CCOCCCNC(=O)Cn1ncc2c(N3CCN(c4ccccn4)CC3)ncnc21`, the RP-LC retention time amounted to 565 s.
The value for `COc1ccccc1N=NNc1ccccc1OC` was 933 s.
For `Cn1nnc2cc(-c3noc(CN4C(=O)COc5ccccc54)n3)ccc21`, the RP-LC retention time was found to be 803 s.
For `COc1ccc(-c2nc(Cn3ccnc3)no2)cc1` the value was 599 s; for `CNC(=O)c1nc(C(C)(C)NC(=O)c2ccco2)nc2c1OCO2`, 623 s.
For the molecule `Cn1nc2n(c1=O)CCN(C(=O)c1cscn1)CC2`, the RP-LC retention time turned out to be 560 s.
The value for `CCOC(=O)c1cccc(Nc2ncccc2S(=O)(=O)NC)c1` was 622 s; that for `COc1ccc(C(=O)NCC(=O)Nc2nc3ccccc3[nH]2)cc1` was 606 s; that for `CCN1C(=O)C2(CCN(S(=O)(=O)c3ccc4c(c3)CCCC4)CC2)c2ccccc21` was 1220 s.
The molecule `CC1CCCN(c2ccn3c(=O)n(CC(=O)Nc4cccc(Cl)c4)nc3n2)C1` (configuration not stated) showed an RP-LC retention time of 835 s.
The value for `Cc1c(S(=O)(=O)N2CCCCC2)c(C)n(C)c1-c1nnc(C2CCC2)o1` was 1000 s.
For `COC(=O)c1nc(NC(=O)Cn2nc3c(cc2=O)CCCCC3)sc1CC(C)C` the value was 941 s; for `CC(C)n1c(CCNC(=O)c2cccc(Cl)c2)nc2cccnc21`, 701 s.
The value for `Cc1ccccc1NC(=O)Cn1nc(N2CCSCC2)c2ccccc2c1=O` was 892 s.
Regarding `COc1nc2ccccc2nc1N1CCCC(C(=O)NCc2ccc(Cl)cc2)C1` (configuration not stated), the RP-LC retention time was determined as 1110 s.
The molecule `COc1ccc(-c2cc(=S)ss2)cc1` registered an RP-LC retention time of 1090 s.
For `COc1ccc2c(c1)CCc1sc(NC(=O)c3ccco3)nc1-2` the value was 961 s.
The value for `CCc1nc2sc(C(C)C)nn2c1S(=O)(=O)N1CCCCC1` was 1020 s.
For `COc1cccc(CCC(=O)Nc2cnn(-c3ncc(N4CCCC4)cn3)c2)c1` the value was 829 s; for `CSc1ccc(CNC(=O)CN2C(=O)C3CCCCN3c3ccc(C(=O)N4CCCC4)cc32)cc1` (configuration not stated), 850 s.
As for `Cc1ccc(CNC(=O)C2(C)CCCN(C(=O)Nc3ccccc3C(F)(F)F)C2)cc1` (configuration not stated), the RP-LC retention time turned out to be 1010 s.
As to `O=C(C1=CN(c2ccc3c(c2)OCCO3)c2cc(Cl)ccc2S1(=O)=O)N1CCCCC1`, the RP-LC retention time stood at 873 s.
With `Cc1[nH]c(C)c(S(=O)(=O)N2CCC(C(=O)NCc3cccs3)CC2)c1C(=O)N1CCCC1`, the RP-LC retention time is 664 s.
The value for `CCOC(=O)C1=C(C)NC2=C(C(=O)c3ccccc32)C1c1cccc(OC)c1` (configuration not stated) was 988 s; that for `CC(=O)Nc1nc(-c2ccc3c(c2)N(C)C(=O)CO3)cs1` was 700 s; that for `Cc1ccc(Cl)cc1NCc1nnc2n1CCCCC2` was 739 s.
The value for `CCc1cc(=O)n(CC(=O)Nc2ccc(N(C)C)cc2)c(N2CCOCC2)n1` was 587 s; that for `Cc1ccn2c(NC(=O)COc3ccc(Cl)cc3Cl)c(-c3ccc(F)cc3)nc2c1` was 804 s.
The molecule `COc1ccccc1N1CCN(c2cc(SCC(=O)Nc3cc(F)ccc3Cl)ncn2)CC1` returned an RP-LC retention time of 1190 s.
The value for `COc1ccc(-n2c(=O)n(C)c(=O)c3cc(C(=O)NC4CCCCCC4)cnc32)cc1` was 924 s.
Take `Cc1cnn(CC(=O)N2CCc3nn(CC4CC4)c(=O)n3CC2)c1`: the RP-LC retention time is 617 s.
The value for `O=c1ccc(-c2ccc3c(c2)OCO3)nn1Cc1nc(-c2ccc(C(F)(F)F)cc2)no1` was 1070 s.
`COc1ccc(-c2cc3n(n2)CCCN(C(=O)c2cccnc2SC)C3)cc1` yielded an RP-LC retention time of 788 s.
`CCc1nn2c(CNC(=O)c3ccccn3)c(-c3ccccc3)nc2s1` yielded an RP-LC retention time of 891 s.
For `O=c1[nH]c2cc(Br)cnc2[nH]c1=O` the value was 553 s; for `CCCNC(=O)C(=O)NCC(c1ccc2c(c1)CCCN2C)N1CCCCC1` (configuration not stated), 598 s.
`CCCOc1ccc(CNC(=O)CN2CCN(Cc3ccc(F)cc3)C2=O)cc1` returned an RP-LC retention time of 903 s.
As to `Cc1cccc(NC(=O)Cn2c(=O)n(-c3ccccc3)c3ncccc32)c1`, the RP-LC retention time came out at 851 s.
In the case of `c1ccc2c(N3CCOCC3)nnc(N3CCCC3)c2c1`, the RP-LC retention time came out at 574 s.
For the molecule `COc1cccc(-c2nc(C3CCN(C(=O)C4COc5ccccc5O4)CC3)no2)c1` (configuration not stated), the RP-LC retention time was 1060 s.
The value for `CCCCN1CC(c2nc3ccccc3n2CCOc2ccccc2OC)CC1=O` (configuration not stated) was 750 s; that for `CCOC(=O)CCC(=O)NCC1CN(c2ccc(F)cc2)C(=O)O1` (configuration not stated) was 666 s; that for `CC(C)C(=O)N1CCCC(c2nc(CCNC(=O)C3CCC3)cs2)C1` (configuration not stated) was 694 s.
For `COc1cc(N)c(Cl)cc1C(=O)NC1CN2CCC1CC2` (configuration not stated), the RP-LC retention time is 615 s.
`CC(C)CC(C(=O)N1CCOCC1)N1CC2=C(C1=O)C(c1ccccc1Cl)NC(=O)N2C` (configuration not stated) yielded an RP-LC retention time of 894 s.
The value for `O=C(Cc1nnc(-c2cccc(F)c2)o1)NC1CCCC1` was 746 s.
Take `CCCNc1nc(-c2cccc(Br)c2)cs1`: the RP-LC retention time stood at 1030 s.
